In brackets after ≈: the same amount, converted by molar mass. Numbered stars: 1 amine (or outer) side, 2 acyl side, 3 side chain; on linkers, the order of the positions; unused ones are H or OH. Square brackets hold non-standard residues; d marks the D form. Peptide text beside a SMILES is read from it. * marks the point of attachment. ξ: configuration not given here. X1 = N=C1NCC(C(O)C(N[*:1])C(=O)[*:2])N1C1OC(CO)C(O)C(O)C1O; ξEnduracididine(βξ-OH,4'ξ) = N=C1NCC(C(O)C(N)C(=O)O)N1; X2 = OCC1OC(OC2C(CO)OC(*)C(O)C2O)C(O)C(O)C1O; Cha = N[CH](CC1CCCCC1)C(=O)O
Tests used:
Enterococcus sp. = experiment: in vitro antibacterial evaluation, MIC by broth dilution; assay type: cell-based; details: broth dilution, 18 hours at 35° C.; for MIC Enterococcus faecalis (GC 2242): strain GC 2242; for MIC Enterococcus faecalis (GC 4552): strain GC 4552
Summary of the method: (§1)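 Following National Committee for Clinical Laboratory Standards recommendations (M7-A2), susceptibility was measured by dilution in Muller-Hinton II […]. Bacteria were seeded at 5×10^5 CFU/mL against compound concentrations from 64 down to 0.06 μg/mL.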

Escherichia coli = experiment: as above; assay type: cell-based; details: 18 hours at 35° C.
Summary of the method: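 Inoculum 5×10^5 CFU/mL; concentrations 64 to 0.06 μg/mL; MIC defined as lowest inhibitory level. Conducted by broth dilution under NCCLS guidelines.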

Staphylococcus sp. = experiment: as above; assay type: cell-based; details: broth dilution, 18 hours at 35° C.
Summary of the method: as §1

Streptococcus sp. = experiment: as above; assay type: cell-based; details: broth dilution, 18 hours at 35° C.; for MIC Streptococcus agalactiae (GC 4564): strain GC 4564
Summary of the method: as §1

[1] = clinical pathology (serum clinical chemistry) in mice; assay type: in vivo; details: CD-1 mice, 20 mg/kg intravenously daily for 9 days, sera day 10
Procedure: 20-day-old CD-1 mice were divided into a vehicle control group (5 mice) and a treatment group (5 mice). Samples of glycopeptide antibiotics were administered at 20 mg/kg intravenously daily for 9 days.

[2] = anatomic pathology (histopathology of heart and kidney) in mice; assay type: in vivo; details: CD-1 mice, 20 mg/kg intravenously daily for 9 days, necropsy day 10, microscopic histopathology
Procedure: Samples of tissues from necropsied mice were formalin-fixed, paraffin-embedded, sectioned, stained with hematoxylin and eosin, and examined microscopically. Histopathologic findings were recorded. These findings were subjectively graded on a scale corresponding to slight, mild, moderate, marked and severe as compared to untreated controls.

[3] = Enterococcus faecalis (ATCC 29212)
[4] = Enterococcus faecalis (GC 4553)
[5] = Enterococcus faecalis (GC 4554)

N=C1NCC(C(O)C2NC(=O)C(Cc3ccc(OC4OC(CO)C(OC5OC(CO)C(O)C(O)C5O)C(O)C4O)cc3)NC(=O)C(CC3CCCCC3)NC(=O)CNC(=O)C(CO)NC(=O)C(C(O)C3CNC(=N)N3C3OC(CO)C(O)C(O)C3O)NC2=O)N1 (stereo not drawn) [Example 263, Cyclo[3-cyclohexylalanyl-O-(4-O-hexopyranosylhexopyranosyl)tyrosyl-3-(2-iminoimidazolidin-4-yl)seryl-3-(3-hexopyranosyl-2-iminoimidazolidin-4-yl)serylserylglycyl]] (cyclo(G[Cha]Y(X2)[ξEnduracididine(βξ-OH,4'ξ)][X1]S); configuration not given here)
MIC Enterococcus avium (GC 4558) (Enterococcus sp.; Enterococcus avium (GC 4558)): >64 µg/mL
MIC Enterococcus faecalis (ATCC 29212) (Enterococcus sp.; [3]): >64 µg/mL
MIC Enterococcus faecalis (GC 4553) (Enterococcus sp.; [4]): >64 µg/mL
MIC Enterococcus faecalis (GC 4554) (Enterococcus sp.; [5]): >64 µg/mL
MIC Enterococcus faecium (GC 2243) (Enterococcus sp.; Enterococcus faecium (GC 2243)): >64 µg/mL
MIC Enterococcus faecium (GC 4556) (Enterococcus sp.; Enterococcus faecium (GC 4556)): >64 µg/mL
MIC Enterococcus faecium (GC 4557) (Enterococcus sp.; Enterococcus faecium (GC 4557)): 32 µg/mL (≈ 24.9 µM)
MIC Enterococcus faecalis (ATCC 29212) (Enterococcus sp.; strain ATCC 29212): >64 µg/mL
MIC Enterococcus faecalis (GC 2242) (Enterococcus sp.): >64 µg/mL
MIC Enterococcus faecium (GC 2243) (Enterococcus sp.; strain GC 2243): >64 µg/mL
MIC Enterococcus faecalis (GC 4552) (Enterococcus sp.): >64 µg/mL
MIC Enterococcus faecalis (GC 4553) (Enterococcus sp.; strain GC 4553): >64 µg/mL
MIC Enterococcus faecalis (GC 4554) (Enterococcus sp.; strain GC 4554): >64 µg/mL
MIC Enterococcus faecium (GC 4556) (Enterococcus sp.; strain GC 4556): >64 µg/mL
MIC Enterococcus faecium (GC 4557) (Enterococcus sp.; strain GC 4557): 32 µg/mL (≈ 24.9 µM)
MIC Enterococcus avium (GC 4558) (Enterococcus sp.; strain GC 4558): >64 µg/mL
MIC Escherichia coli (ATCC 25922) (Escherichia coli): >64 µg/mL
MIC Escherichia coli (GC 4559) (Escherichia coli): >64 µg/mL
MIC Escherichia coli (GC 4560) (Escherichia coli): 16 µg/mL (≈ 12.4 µM)
MIC Coagulase Negative Staphylococcus (GC 4547) (Staphylococcus sp.): 64 µg/mL (≈ 49.7 µM)
MIC Coagulase Negative Staphylococcus (GC 4548) (Staphylococcus sp.): 32 µg/mL (≈ 24.9 µM)
MIC Coagulase Negative Staphylococcus (GC 4549) (Staphylococcus sp.): 16 µg/mL (≈ 12.4 µM)
MIC Coagulase Negative Staphylococcus (GC 4551) (Staphylococcus sp.): 64 µg/mL (≈ 49.7 µM)
MIC Staphylococcus aureus (ATCC 29213) (Staphylococcus sp.): 64 µg/mL (≈ 49.7 µM)
MIC Staphylococcus aureus (GC 1131) (Staphylococcus sp.): 64 µg/mL (≈ 49.7 µM)
MIC Staphylococcus aureus (GC 4541) (Staphylococcus sp.): 64 µg/mL (≈ 49.7 µM)
MIC Staphylococcus aureus (GC 4542) (Staphylococcus sp.): 64 µg/mL (≈ 49.7 µM)
MIC Staphylococcus aureus (GC 4544) (Staphylococcus sp.): >64 µg/mL
MIC Staphylococcus aureus (GC 4545) (Staphylococcus sp.): 64 µg/mL (≈ 49.7 µM)
MIC Staphylococcus aureus-SMITH (GC 4543) (Staphylococcus sp.): 32 µg/mL (≈ 24.9 µM)
MIC Staphylococcus haemolyticus (GC 4546) (Staphylococcus sp.): 32 µg/mL (≈ 24.9 µM)
MIC Staphylococcus aureus (ATCC 29213) (Staphylococcus sp.; strain ATCC 29213): 64 µg/mL (≈ 49.7 µM)
MIC Staphylococcus aureus (GC 1131) (Staphylococcus sp.; strain GC 1131): 64 µg/mL (≈ 49.7 µM)
MIC Staphylococcus aureus (GC 4541) (Staphylococcus sp.; strain GC 4541): 64 µg/mL (≈ 49.7 µM)
MIC Staphylococcus aureus (GC 4542) (Staphylococcus sp.; strain GC 4542): 64 µg/mL (≈ 49.7 µM)
MIC Staphylococcus aureus (GC 4544) (Staphylococcus sp.; strain GC 4544): >64 µg/mL
MIC Staphylococcus aureus (GC 4545) (Staphylococcus sp.; strain GC 4545): 64 µg/mL (≈ 49.7 µM)
MIC Staphylococcus haemolyticus (GC 4546) (Staphylococcus sp.; strain GC 4546): 32 µg/mL (≈ 24.9 µM)
MIC Coagulase Negative Staphylococcus (GC 4547) (Staphylococcus sp.; strain GC 4547): 64 µg/mL (≈ 49.7 µM)
MIC Coagulase Negative Staphylococcus (GC 4548) (Staphylococcus sp.; strain GC 4548): 32 µg/mL (≈ 24.9 µM)
MIC Coagulase Negative Staphylococcus (GC 4549) (Staphylococcus sp.; strain GC 4549): 16 µg/mL (≈ 12.4 µM)
MIC Coagulase Negative Staphylococcus (GC 4551) (Staphylococcus sp.; strain GC 4551): 64 µg/mL (≈ 49.7 µM)
MIC Staphylococcus aureus-SMITH (GC 4543) (Staphylococcus sp.; strain SMITH GC 4543): 32 µg/mL (≈ 24.9 µM)
MIC Streptococcus agalactiae (GC 4564) (Streptococcus sp.): 32 µg/mL (≈ 24.9 µM)
MIC Streptococcus pyogenes (ID-3187) (Streptococcus sp.; strain ID-3187): 32 µg/mL (≈ 24.9 µM)
Clinical Chemistry (Day 10) % of Control, Creatinine [1]: +116%
Anatomical Pathology (Day 10), Heart [2]: +
Anatomical Pathology (Day 10), Kidney [2]: ++

CC(c1ccccc1)C1NC(=O)CNC(=O)C(CO)NC(=O)C(CC2CNC(=N)N2C2OC(CO)C(O)C(O)C2O)NC(=O)C(CC2CNC(=N)N2)NC(=O)C(Cc2ccc(OC3OC(CO)C(OC4OC(CO)C(O)C(O)C4O)C(O)C3O)cc2)NC1=O (centres unmarked) [Example 277a]
MIC Enterococcus avium (GC 4558) (Enterococcus sp.; Enterococcus avium (GC 4558)): 128 µg/mL (≈ 101 µM)
MIC Enterococcus faecalis (ATCC 29212) (Enterococcus sp.; [3]): >128 µg/mL
MIC Enterococcus faecalis (GC 4553) (Enterococcus sp.; [4]): >128 µg/mL
MIC Enterococcus faecalis (GC 4554) (Enterococcus sp.; [5]): >128 µg/mL
MIC Enterococcus faecalis (GC 6189) (Enterococcus sp.; Enterococcus faecalis (GC 6189)): >128 µg/mL
MIC Enterococcus faecium (GC 2243) (Enterococcus sp.; Enterococcus faecium (GC 2243)): >128 µg/mL
MIC Enterococcus faecium (GC 4556) (Enterococcus sp.; Enterococcus faecium (GC 4556)): >128 µg/mL
MIC Enterococcus faecium (GC 4557) (Enterococcus sp.; Enterococcus faecium (GC 4557)): 128 µg/mL (≈ 101 µM)
MIC Enterococcus faecalis (ATCC 29212) (Enterococcus sp.; strain ATCC 29212): >128 µg/mL
MIC Enterococcus faecalis (GC 2242) (Enterococcus sp.): >128 µg/mL
MIC Enterococcus faecium (GC 2243) (Enterococcus sp.; strain GC 2243): >128 µg/mL
MIC Enterococcus faecalis (GC 2691) (Enterococcus sp.; strain GC 2691): >128 µg/mL
MIC Enterococcus faecalis (GC 3059) (Enterococcus sp.; strain GC 3059): >128 µg/mL
MIC Enterococcus faecalis (GC 4552) (Enterococcus sp.): >128 µg/mL
MIC Enterococcus faecalis (GC 4553) (Enterococcus sp.; strain GC 4553): >128 µg/mL
MIC Enterococcus faecalis (GC 4554) (Enterococcus sp.; strain GC 4554): >128 µg/mL
MIC Enterococcus faecium (GC 4556) (Enterococcus sp.; strain GC 4556): >128 µg/mL
MIC Enterococcus faecium (GC 4557) (Enterococcus sp.; strain GC 4557): 128 µg/mL (≈ 101 µM)
MIC Enterococcus avium (GC 4558) (Enterococcus sp.; strain GC 4558): 128 µg/mL (≈ 101 µM)
MIC Enterococcus faecalis (GC 6189) (Enterococcus sp.; strain GC 6189): >128 µg/mL
MIC Escherichia coli (ATCC 25922) (Escherichia coli): >128 µg/mL
MIC Escherichia coli (GC 4559) (Escherichia coli): >128 µg/mL
MIC Escherichia coli (GC 4560) (Escherichia coli): >128 µg/mL
MIC Coagulase Negative Staphylococcus (GC 4547) (Staphylococcus sp.): >128 µg/mL
MIC Coagulase Negative Staphylococcus (GC 4548) (Staphylococcus sp.): >128 µg/mL
MIC Coagulase Negative Staphylococcus (GC 4549) (Staphylococcus sp.): >128 µg/mL
MIC Coagulase Negative Staphylococcus (GC 4551) (Staphylococcus sp.): >128 µg/mL
MIC Staphylococcus aureus (ATCC 29213) (Staphylococcus sp.): >128 µg/mL
MIC Staphylococcus aureus (GC 1131) (Staphylococcus sp.): >128 µg/mL
MIC Staphylococcus aureus (GC 3051) (Staphylococcus sp.): >128 µg/mL
MIC Staphylococcus aureus (GC 3053) (Staphylococcus sp.): >128 µg/mL
MIC Staphylococcus aureus (GC 4541) (Staphylococcus sp.): >128 µg/mL
MIC Staphylococcus aureus (GC 4542) (Staphylococcus sp.): >128 µg/mL
MIC Staphylococcus aureus (GC 4544) (Staphylococcus sp.): >128 µg/mL
MIC Staphylococcus aureus (GC 4545) (Staphylococcus sp.): >128 µg/mL
MIC Staphylococcus aureus-SMITH (GC 4543) (Staphylococcus sp.): >128 µg/mL
MIC Staphylococcus haemolyticus (GC 4546) (Staphylococcus sp.): >128 µg/mL
MIC Staphylococcus aureus (ATCC 29213) (Staphylococcus sp.; strain ATCC 29213): >128 µg/mL
MIC Staphylococcus aureus (GC 1131) (Staphylococcus sp.; strain GC 1131): >128 µg/mL
MIC Staphylococcus aureus (GC 3051) (Staphylococcus sp.; strain GC 3051): >128 µg/mL
MIC Staphylococcus aureus (GC 3053) (Staphylococcus sp.; strain GC 3053): >128 µg/mL
MIC Staphylococcus aureus (GC 4541) (Staphylococcus sp.; strain GC 4541): >128 µg/mL
MIC Staphylococcus aureus (GC 4542) (Staphylococcus sp.; strain GC 4542): >128 µg/mL
MIC Staphylococcus aureus (GC 4544) (Staphylococcus sp.; strain GC 4544): >128 µg/mL
MIC Staphylococcus aureus (GC 4545) (Staphylococcus sp.; strain GC 4545): >128 µg/mL
MIC Staphylococcus haemolyticus (GC 4546) (Staphylococcus sp.; strain GC 4546): >128 µg/mL
MIC Coagulase Negative Staphylococcus (GC 4547) (Staphylococcus sp.; strain GC 4547): >128 µg/mL
MIC Coagulase Negative Staphylococcus (GC 4548) (Staphylococcus sp.; strain GC 4548): >128 µg/mL
MIC Coagulase Negative Staphylococcus (GC 4549) (Staphylococcus sp.; strain GC 4549): >128 µg/mL
MIC Coagulase Negative Staphylococcus (GC 4551) (Staphylococcus sp.; strain GC 4551): >128 µg/mL
MIC Staphylococcus aureus-SMITH (GC 4543) (Staphylococcus sp.; strain SMITH GC 4543): >128 µg/mL
MIC Streptococcus pneumoniae (ATCC 6301) (Streptococcus sp.; strain ATCC 6301): >128 µg/mL
MIC Streptococcus pneumoniae (GC 1894) (Streptococcus sp.; strain GC 1894): >128 µg/mL
MIC Streptococcus pyogenes (GC 4563) (Streptococcus sp.; strain GC 4563): >128 µg/mL
MIC Streptococcus agalactiae (GC 4564) (Streptococcus sp.): >128 µg/mL
MIC Streptococcus pneumoniae (GC 4565) (Streptococcus sp.; strain GC 4565): >128 µg/mL
Clinical Chemistry (Day 10) % of Control, BUN [1]: +110%
Anatomical Pathology (Day 10), Heart [2]: 0
Anatomical Pathology (Day 10), Kidney [2]: ++
